From patent US20140031217A1, “HERBICIDAL COMPOSITIONS COMPRISING 4-AMINO-3-CHLORO-5-FLUORO-6-(4-CHLORO-2-FLUORO-3-METHOXYPHENYL)PYRIDINE-2-CARBOXYLIC ACID OR A DERIVATIVE THEREOF AND AUXIN TRANSPORT INHIBITORS” (DOW AGROSCIENCES LLC, priority 2012, published 2014)

What was measured:
ECHCG = test: In-water applied (paddy) greenhouse weed control, ECHCG; assay type: in vivo, Echinochloa crusgalli (L.) Beauv.
Protocol: (§1) Weed seeds or nutlets of the desired test plant species were planted in puddled soil (mud) prepared by mixing a shredded, non-sterilized mineral soil (50.5 percent silt, 25.5 percent clay, and 24 percent sand, with a pH of about 7.6 and an organic matter content of about 2.9 percent) and water at a 1:1 volumetric ratio. The prepared mud was dispensed in 365 mL aliquots into 16-ounce (oz.) non-perforated plastic pots with a surface area of 86.59 square centimeters (cm^2) leaving a headspace of 3 centimeters (cm) in each pot. Mud was allowed to dry overnight prior to planting or transplanting. Rice seeds were planted in Sun Gro MetroMix® 306 planting mixture, which typically has a pH of 6.0 to 6.8 and an organic matter content of about 30 percent, in plastic plug trays. Seedlings at the second or third leaf stage of growth were transplanted into 840 mL of mud contained in 32-oz. non-perforated plastic pots with a surface area of 86.59 cm^2 4 days prior to herbicide application. The paddy was created by filling the headspace of the pots with 2.5 to 3 cm of water. When required to ensure good germination and healthy plants, a fungicide treatment and/or other chemical or physical treatment was applied. The plants were grown for 4-22 days in a greenhouse with an approximate 14 h photoperiod which was maintained at about 29′C during the day and 26° C. during the night. Nutrients were added as Osmocote® (19:6:12, N:P:K+minor nutrients) at 2 g per 16-oz. pot and 4 g per 960-mL 32-oz. pot. Water was added on a regular basis to maintain the paddy flood, and supplemental lighting was provided with overhead metal halide 1000-Watt lamps as necessary. The plants were employed for testing when they reached the second or third true leaf stage.
(§2) Treatments consisted of the acid or esters of 4-amino-3-chloro-5-fluoro-6-(4-chloro-2-fluoro-3-methoxy-phenyl)pyridine-2-carboxylic acid (compound A) each formulated as an SC and various herbicidal components alone and in combination. Forms of compound A were applied on an acid equivalent basis.
(§3) Other herbicidal components were applied on an active ingredient basis and included auxin transport inhibiting (ATI) herbicides chlorflurenol-methyl (technical material), chlorflurenol (technical material), diflufenzopyr (technical material), dilfufenzopyr sodium (technical material), flurenol-methyl (technical material,) and naptalam (technical material).
(§4) Treatment requirements for each compound or herbicidal component were calculated based upon the rates being tested, the concentration of active ingredient or acid equivalent in the formulation, an application volume of 2 mL per component per pot, and an application area of 86.59 cm^2 per pot.
(§5) For formulated compounds, a measured amount was placed in an individual 100 or 200 mL glass vial and was dissolved in a volume of 1.25% (v/v) Agri-Dex® crop oil concentrate to obtain application solutions.
(§6) For technical grade compounds, a weighed amount was placed in an individual 100 to 200 mL glass vial and was dissolved in a volume of acetone to obtain concentrated stock solutions. […] The concentrated stock solutions obtained were diluted with an equivalent volume of an aqueous mixture containing 2.5% (v/v) crop oil concentrate so that the final application solutions contained 1.25% (v/v) crop oil concentrate.
(§7) Applications were made by injecting with a pipetter appropriate amounts of the application solutions, individually and sequentially, into the aqueous layer of the paddy. Control plants were treated in the same manner with the solvent blank. Applications were made so that all treated plant material received the same concentrations of acetone and crop oil concentrate.
(§8) The treated plants and control plants were placed in a greenhouse as described above and water was added as needed to maintain a paddy flood. […]

CYPRO = test: In-water applied (paddy) greenhouse weed control, CYPRO; assay type: in vivo, Cyperus rotundus L.; settings: 19 DAA
Protocol: as §1, §2, §3, §4, §5, §6, §7, §8

FIMMI = test: In-water applied (paddy) greenhouse weed control, FIMMI; assay type: in vivo, Fimbristylis miliacea (L.) Vahl; settings: 19 DAA
Protocol: as §1, §2, §3, §4, §5, §6, §7, §8

SMILES | Visual Weed Control (%) Obs (ECHCG; 19 DAA, 8 gae/ha) [%] | Visual Weed Control (%) Obs (ECHCG; 19 DAA, 16 gae/ha) [%] | Visual Weed Control (%) Obs (ECHCG; 19 DAA, 32 gae/ha) [%] | Visual Weed Control (%) Obs (ECHCG; 20 DAA, 4.38 gae/ha) [%] | Visual Weed Control (%) Obs (ECHCG; 22 DAA, 4.38 gae/ha) [%] | Visual Weed Control (%) Obs (ECHCG; 22 DAA, 8.75 gae/ha) [%] | Visual Weed Control (%) Obs (ECHCG; 22 DAA, 17.5 gae/ha) [%] | Visual Weed Control (%) Obs (CYPRO; 8 gae/ha) [%] | Visual Weed Control (%) Obs (CYPRO; 16 gae/ha) [%] | Visual Weed Control (%) Obs (CYPRO; 32 gae/ha) [%] | Visual Weed Control (%) Obs (FIMMI; 8 gae/ha) [%] | Visual Weed Control (%) Obs (FIMMI; 16 gae/ha) [%] | Visual Weed Control (%) Obs (FIMMI; 32 gae/ha) [%] | Visual Weed Control (%) Obs (ECHCG; 20 DAA, 17.5 gae/ha) [%] | Visual Weed Control (%) Obs (ECHCG; 20 DAA, 35 gae/ha) [%] | Visual Weed Control (%) Obs (ECHCG; 22 DAA, 35 gae/ha) [%]
COc1c(Cl)ccc(-c2nc(C(=O)OCc3ccccc3)c(Cl)c(N)c2F)c1F [Compound A Benzyl Ester] | 30 | 20 | 40 | 40 | 10 | 25 | 60 | 50 | 85 | 90 | 0 | 0 | 85 | – | – | –
COc1c(Cl)ccc(-c2nc(C(=O)O)c(Cl)c(N)c2F)c1F [Compound A Acid, 4-amino-3-chloro-6-(4-chloro-2-fluoro-3-methoxyphenyl)-5-fluoropyridine-2-carboxylic acid] | – | – | – | – | – | 0 | 15 | – | – | – | – | – | – | 50 | 95 | 15
